Assays:
[1] = tested on: Receptor-type tyrosine-protein kinase FLT3 (Homo sapiens), P36888 [UNDEFINED MUTATION]; assay: (§1) Selectivity interaction (KinomeScan (DiscoverX)) EUB0000311b FLT3; details: at 1 µM
[2] = tested on: T1, Receptor-type tyrosine-protein kinase FLT3 (Homo sapiens), P36888 [N841I]; assay: as §1; details: at 1 µM
T1 sequence (whole entry): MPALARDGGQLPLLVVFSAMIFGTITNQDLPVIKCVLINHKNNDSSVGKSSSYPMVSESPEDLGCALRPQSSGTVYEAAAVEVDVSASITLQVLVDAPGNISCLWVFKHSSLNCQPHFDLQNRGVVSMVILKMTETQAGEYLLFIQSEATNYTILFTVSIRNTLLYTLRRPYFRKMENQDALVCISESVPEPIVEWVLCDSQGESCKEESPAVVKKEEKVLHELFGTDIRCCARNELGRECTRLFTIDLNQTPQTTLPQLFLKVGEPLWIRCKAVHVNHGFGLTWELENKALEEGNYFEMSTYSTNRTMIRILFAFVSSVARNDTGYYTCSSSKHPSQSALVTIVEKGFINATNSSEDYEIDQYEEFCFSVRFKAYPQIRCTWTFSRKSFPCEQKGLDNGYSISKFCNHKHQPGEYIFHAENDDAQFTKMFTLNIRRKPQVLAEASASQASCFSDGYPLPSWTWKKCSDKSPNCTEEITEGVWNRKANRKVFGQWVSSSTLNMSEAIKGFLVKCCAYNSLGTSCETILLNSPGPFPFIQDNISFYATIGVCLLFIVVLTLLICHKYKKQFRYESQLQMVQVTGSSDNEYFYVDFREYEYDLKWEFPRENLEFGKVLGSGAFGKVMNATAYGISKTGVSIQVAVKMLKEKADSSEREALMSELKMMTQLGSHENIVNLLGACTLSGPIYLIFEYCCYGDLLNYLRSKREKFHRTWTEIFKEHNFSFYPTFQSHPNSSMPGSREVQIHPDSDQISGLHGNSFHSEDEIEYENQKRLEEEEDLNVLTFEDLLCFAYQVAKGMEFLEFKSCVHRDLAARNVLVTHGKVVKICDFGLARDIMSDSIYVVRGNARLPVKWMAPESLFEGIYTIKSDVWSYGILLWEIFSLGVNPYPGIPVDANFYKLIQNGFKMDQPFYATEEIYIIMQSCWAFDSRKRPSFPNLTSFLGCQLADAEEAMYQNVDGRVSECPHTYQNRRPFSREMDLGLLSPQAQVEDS

[3] = target: T2, Histone-lysine N-methyltransferase NSD3 (Homo sapiens) (UniProt Q9BZ95); assay: Selectivity interaction (Methyltransferase screen (radiometric assays, panel of 8 PRMTs, 21 protein lysine methyltransferases, 3 DNA methyltransferases, and one RNA methyltransferase)) EUB0000272b NSD3
T2 sequence (whole entry): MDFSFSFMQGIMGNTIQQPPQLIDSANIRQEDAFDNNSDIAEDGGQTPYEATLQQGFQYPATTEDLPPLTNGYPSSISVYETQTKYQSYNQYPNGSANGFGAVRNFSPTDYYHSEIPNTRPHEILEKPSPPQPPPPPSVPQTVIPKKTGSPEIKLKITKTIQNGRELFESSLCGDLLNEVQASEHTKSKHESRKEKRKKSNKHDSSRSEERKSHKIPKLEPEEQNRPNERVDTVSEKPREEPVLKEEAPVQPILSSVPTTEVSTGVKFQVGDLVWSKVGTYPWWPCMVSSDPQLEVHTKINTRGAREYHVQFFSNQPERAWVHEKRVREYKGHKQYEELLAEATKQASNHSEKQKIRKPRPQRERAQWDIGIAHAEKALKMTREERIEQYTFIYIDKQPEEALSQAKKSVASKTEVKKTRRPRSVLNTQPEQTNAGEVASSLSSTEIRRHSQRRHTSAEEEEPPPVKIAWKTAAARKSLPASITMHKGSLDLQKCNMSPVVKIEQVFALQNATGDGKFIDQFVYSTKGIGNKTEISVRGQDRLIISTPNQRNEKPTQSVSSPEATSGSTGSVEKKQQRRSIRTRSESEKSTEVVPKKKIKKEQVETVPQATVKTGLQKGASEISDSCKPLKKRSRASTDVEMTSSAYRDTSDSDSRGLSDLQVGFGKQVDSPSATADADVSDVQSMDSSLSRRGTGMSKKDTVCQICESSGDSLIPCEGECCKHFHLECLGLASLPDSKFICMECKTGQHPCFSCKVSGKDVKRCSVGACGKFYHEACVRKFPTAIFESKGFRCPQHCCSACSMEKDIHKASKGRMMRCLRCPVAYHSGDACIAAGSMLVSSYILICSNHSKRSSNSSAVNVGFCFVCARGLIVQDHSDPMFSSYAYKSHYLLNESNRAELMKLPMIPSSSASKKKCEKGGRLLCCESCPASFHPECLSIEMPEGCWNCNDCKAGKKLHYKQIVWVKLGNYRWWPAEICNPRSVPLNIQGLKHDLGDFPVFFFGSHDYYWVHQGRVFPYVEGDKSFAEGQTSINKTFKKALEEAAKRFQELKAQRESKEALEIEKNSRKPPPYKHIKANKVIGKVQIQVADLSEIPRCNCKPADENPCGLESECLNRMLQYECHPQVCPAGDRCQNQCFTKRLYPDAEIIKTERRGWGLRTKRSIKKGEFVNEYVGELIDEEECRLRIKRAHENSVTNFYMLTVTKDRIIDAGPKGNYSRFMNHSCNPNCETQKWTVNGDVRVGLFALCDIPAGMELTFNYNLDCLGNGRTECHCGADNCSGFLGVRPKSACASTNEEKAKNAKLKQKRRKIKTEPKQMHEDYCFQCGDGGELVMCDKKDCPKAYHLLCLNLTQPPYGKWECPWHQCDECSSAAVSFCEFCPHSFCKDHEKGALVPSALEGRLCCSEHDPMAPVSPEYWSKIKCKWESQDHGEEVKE

[4] = target: N-lysine methyltransferase SMYD2 (Homo sapiens) (UniProt Q9NRG4); assay: Selectivity interaction (Methyltransferase screen (Scintillation proximity assays)) EUB0000255b SMYD2
[5] = target: Casein kinase I isoform epsilon (Homo sapiens, UniProt P49674); assay: Selectivity interaction (KinomeScan (DiscoverX)) EUB0000092b CSNK1E; details: at 10 µM
Sequence of Casein kinase I isoform epsilon (P49674 whole entry, looked up, canonical isoform): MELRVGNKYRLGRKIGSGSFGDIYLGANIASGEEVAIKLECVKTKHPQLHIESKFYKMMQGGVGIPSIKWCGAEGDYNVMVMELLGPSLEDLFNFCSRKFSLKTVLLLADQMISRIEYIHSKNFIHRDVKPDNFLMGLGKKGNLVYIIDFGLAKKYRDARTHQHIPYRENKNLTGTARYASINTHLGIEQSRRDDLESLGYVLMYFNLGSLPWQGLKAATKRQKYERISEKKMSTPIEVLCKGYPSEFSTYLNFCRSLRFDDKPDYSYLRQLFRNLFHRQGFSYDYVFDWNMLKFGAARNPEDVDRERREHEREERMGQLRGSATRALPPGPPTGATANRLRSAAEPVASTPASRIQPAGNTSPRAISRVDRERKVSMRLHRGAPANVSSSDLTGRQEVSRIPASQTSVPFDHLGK

Sequence of N-lysine methyltransferase SMYD2 (Homo sapiens) (Q9NRG4 whole entry, canonical isoform): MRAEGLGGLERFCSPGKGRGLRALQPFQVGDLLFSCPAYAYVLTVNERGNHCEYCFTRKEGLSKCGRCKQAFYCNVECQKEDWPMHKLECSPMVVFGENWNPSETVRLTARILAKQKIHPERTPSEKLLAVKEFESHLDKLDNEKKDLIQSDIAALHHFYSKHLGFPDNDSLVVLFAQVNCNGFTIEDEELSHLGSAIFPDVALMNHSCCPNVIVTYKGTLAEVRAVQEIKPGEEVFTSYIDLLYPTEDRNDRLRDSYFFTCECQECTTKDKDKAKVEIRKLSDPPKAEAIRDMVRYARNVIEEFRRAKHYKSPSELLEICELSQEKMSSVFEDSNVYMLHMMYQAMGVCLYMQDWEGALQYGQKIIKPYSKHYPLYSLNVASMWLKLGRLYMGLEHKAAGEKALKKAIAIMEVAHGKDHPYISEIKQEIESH

SMILES: CCc1ccccc1C(=O)Nc1n[nH]c2c(C)c(F)c(C3C(C#N)=C(C)N(C)C(C)=C3C#N)cc12 [BAY-3827]
- % of control [1]: 11%
- % of control [2]: 0%

SMILES: Cc1cc(C)cc([C@H]2c3cc(C)ccc3NC(=O)CN2C(=O)c2ccc(Br)s2)c1
- % of activity ([3]; at 1 µM): 104%
- % of activity ([3]; at 10 µM): 99%

SMILES: COCCN1CCC(c2cc(CN(C)C(=O)c3cccc(Oc4ccccc4)c3)ccn2)CC1
- % activity ([4]; at 1 µM): > 95%
- % activity ([4]; at 10 µM): > 90%

SMILES: CCC(=O)N1CCN(c2ccc(-n3c(=O)ccc4cnc5ccc(-c6cnc7ccccc7c6)cc5c43)cc2C(F)(F)F)CC1
- % of control [5]: 59%

From ChEMBL document CHEMBL5465560, “Selectivity Literature for EUbOPEN Chemogenomic Library” (2024)
